This note sets out measurements from ChEMBL document CHEMBL5506006, “Discovery of 2,9-diaryl-6-carbamoylpurines as a novel class of antitubercular agents” (Eur J Med Chem, 2024).

Usually IC50 stands for the concentration needed to halve the response being measured. A word on the IC90: it is the concentration needed for an effect of 90%. As a reminder, the EC50 is the concentration giving half of the maximal effect.

Data set [1] relates to Mycobacterium tuberculosis. As to the kind of experiment: Antituberculosis activity against Mycobacterium tuberculosis H37Rv. In kind it is functional, organism-based.
Data set [2] is described as follows: Cytotoxicity against African green monkey Vero cells. In kind it is toxicity, cell-based. Particulars: African green monkey (Chlorocebus sabaeus).
Data set [3] is described as follows: Selectivity index, ratio of EC50 for african green monkey Vero cells to IC90 for Mycobacterium tuberculosis H37Rv. In kind it is toxicity. Particulars: read-out: Selectivity Index.
The subject of data set [4] is Mycobacterium tuberculosis. As to the kind of experiment: Antituberculosis activity against Mycobacterium tuberculosis H37Rv infected in macrophage assessed as reduction in bacterial load at 2 times IC90 incubated for 3 days. It counts as functional, organism-based. The conditions noted are these: time 3.0 day.
Data set [5] is described as follows: Biodistribution in C57BL/6 mouse liver at 25 mg/kg, po administered as single dose and measured after 6 hrs by HPLC based UV-Visble detector method. In kind it is ADME, organism-based. The conditions noted are these: read-out: Drug uptake.
Data set [6] in a line: Biodistribution in C57BL/6 mouse lung at 25 mg/kg, po administered as single dose and measured after 48 hrs by HPLC based UV-Visble detector method. It counts as ADME, organism-based. The conditions noted are these: read-out: Drug uptake.
For data set [7], the system named is BMDM. Nature of the data set: Cytotoxicity against mouse BMDMs at 2 to 10 times MIC incubated for 24 hrs by MTS assay. In kind it is toxicity, cell-based.
Data set [8] deals with Mycobacterium tuberculosis. Nature of the data set: Antimycobacterial activity against Mycobacterium tuberculosis H37Rv infected in C57BL/6 mouse assessed as reduction in liver bacterial burden at 25 mg/kg, po pre-infected for 24 hrs followed by compound addition for 6 days per week and measured on day 18. In kind it is functional, organism-based. Particulars: time 18.0 day.

For data set [9], the system named is Mycobacterium tuberculosis. As to the kind of experiment: Antituberculosis activity against Mycobacterium tuberculosis H37Rv infected in macrophage assessed as reduction in bacterial load at 10 times IC90 incubated for 3 days. It counts as functional, organism-based. The conditions noted are these: time 3.0 day.
The nature of data set [10]: Biodistribution in C57BL/6 mouse blood at 25 mg/kg, po administered as single dose and measured after 2 hrs by HPLC based UV-Visble detector method. It counts as ADME, organism-based. Particulars: read-out: Drug uptake.
For data set [11], the system named is Mycobacterium tuberculosis. Nature of the data set: Antimycobacterial activity against Mycobacterium tuberculosis H37Rv infected in C57BL/6 mouse assessed as reduction in lung bacterial burden at 25 mg/kg, po pre-infected for 24 hrs followed by compound addition for 6 days per week and measured on day 18 and 36. It counts as functional, organism-based. Particulars: time 18-36 day.

A short description of data set [12]: Biodistribution in C57BL/6 mouse liver at 25 mg/kg, po administered as single dose and measured after 24 hrs by HPLC based UV-Visble detector method. In kind it is ADME, organism-based. Particulars: in vivo.
Data set [13] in a line: Biodistribution in C57BL/6 mouse lung at 25 mg/kg, po administered as single dose and measured after 24 hrs by HPLC based UV-Visble detector method. It counts as ADME, organism-based. Particulars: read-out: Drug uptake.
Data set [14] can be described thus: Biodistribution in C57BL/6 mouse blood at 25 mg/kg, po administered as single dose and measured after 6 hrs by HPLC based UV-Visble detector method. It counts as ADME, organism-based. Particulars: read-out: Drug uptake.
A short description of data set [15]: Biodistribution in C57BL/6 mouse liver at 25 mg/kg, po administered as single dose and measured after 2 hrs by HPLC based UV-Visble detector method. It counts as ADME, organism-based. Particulars: read-out: Drug uptake.

≈ marks a conversion by molar mass, not a printed value. Calls of active or inactive are those of the source. No cut-off for these calls is given here.

In data set [1], `NC(=O)c1nc(-c2ccc(N3CCOCC3)cc2)nc2c1ncn2-c1ccccc1` yielded an IC50 of more than 100 µg/mL and an IC90 of more than 100 µg/mL.
On to `Cc1ccc(-n2cnc3c(C(N)=O)nc(-c4ccccc4O)nc32)cc1`, for which, in [1], the IC50 is more than 100 µg/mL and the IC90 is more than 100 µg/mL.
`N#Cc1ccc(-n2cnc3c(C(N)=O)nc(-c4ccc(O)cc4)nc32)cc1`: in [1], the IC50 was more than 100 µg/mL and the concentration for an effect of 90% (IC90) was more than 100 µg/mL.
With `COc1ccc2cc(-c3nc(C(N)=O)c4ncn(-c5ccccc5)c4n3)ccc2c1`, in data set [1], the IC50 was more than 100 µg/mL and the IC90 was more than 100 µg/mL.
Take `CCOc1ccc(-c2nc(C(N)=O)c3ncn(-c4ccccc4)c3n2)cc1`: in data set [2], the EC50 was found to be 12.9 µg/mL (≈ 35.9 µM). Further, the selectivity ratio in data set [3] turned out to be 7.85. Further, in data set [1], half-maximal inhibition (IC50) was put at 1.44 µg/mL (≈ 4.01 µM) and the IC90 was determined as 1.65 µg/mL (≈ 4.59 µM).
In [1], `Cn1cnc2c(C(N)=O)nc(-c3ccc(O)cc3)nc21` registered an IC50 of 25.8 µg/mL (≈ 95.8 µM) and an IC90 of 47.8 µg/mL (≈ 178 µM).
Regarding `NC(=O)c1nc(-c2ccc(Oc3ccc(Cl)cc3)cc2)nc2c1ncn2-c1ccccc1`, it took 12.7 µg/mL (≈ 28.7 µM) to reach a half-maximal effect in data set [2] (EC50). Also, the selectivity ratio in [3] worked out at 4.11. In data set [1], this molecule came in with an IC50 of 2.69 µg/mL (≈ 6.09 µM) and an IC90 of 3.09 µg/mL (≈ 6.99 µM).
Consider `COc1ccc(-c2nc(C(N)=O)c3ncn(-c4ccccc4)c3n2)c2ccccc12`, for which, in data set [1], the half-maximal inhibitory concentration (IC50) was more than 100 µg/mL and the IC90 was more than 100 µg/mL.
In [1], `Cc1ccc(-n2cnc3c(C(N)=O)nc(-c4cccc(O)c4)nc32)cc1` gave an IC50 of more than 100 µg/mL and an IC90 of more than 100 µg/mL.
In data set [1], `Cc1ccc(-n2cnc3c(C(N)=O)nc(-c4ccc(O)cc4)nc32)cc1` came in with a concentration for half-maximal inhibition (IC50) of 19.2 µg/mL (≈ 55.6 µM) and an IC90 of more than 100 µg/mL.
In [1], `NC(=O)c1nc(-c2ccc(O)cc2)nc2c1ncn2Cc1ccccc1` came in with an IC50 of more than 100 µg/mL and an IC90 of more than 100 µg/mL.
In the case of `N#Cc1ccc(-n2cnc3c(C(N)=O)nc(-c4ccccc4O)nc32)cc1`, in data set [1], the IC50 was more than 100 µg/mL and the IC90 is more than 100 µg/mL.
`COc1ccc(-n2cnc3c(C(N)=O)nc(-c4cccc(O)c4)nc32)cc1`: in data set [1], the IC50 is more than 100 µg/mL and the IC90 is more than 100 µg/mL.
In the case of `NC(=O)c1nc(-c2ccc(O)cc2)nc2c1ncn2-c1ccccc1`, the concentration for a half-maximal effect (EC50) in [2] is more than 30 µg/mL. Moreover, the selectivity ratio in data set [3] was more than 25.5. In data set [1], this molecule registered an IC50 of 0.7 µg/mL (≈ 2.11 µM) and a concentration for an effect of 90% (IC90) of 1.2 µg/mL (≈ 3.62 µM).
In data set [1], `NC(=O)c1nc(-c2ccc(C(F)(F)F)cc2)nc2c1ncn2-c1ccccc1` came in with an IC50 of more than 100 µg/mL and a 90% effect concentration (IC90) of more than 100 µg/mL.
In [1], `NC(=O)c1nc(-c2ccccc2O)nc2c1ncn2-c1ccccc1` had an IC50 of more than 100 µg/mL and an IC90 of more than 100 µg/mL.
In [1], `Cn1cnc2c(C(N)=O)nc(-c3ccccc3O)nc21` had an IC50 of more than 100 µg/mL and an IC90 of more than 100 µg/mL.
In data set [1], `CCc1ccc(-c2nc(C(N)=O)c3ncn(-c4ccccc4)c3n2)cc1` yielded an IC50 of more than 100 µg/mL and a 90% effect concentration (IC90) of more than 100 µg/mL.
For `COc1ccc(-c2nc(C(N)=O)c3ncn(-c4ccccc4)c3n2)cc1`, the outcome in data set [4], in [8], in data set [9] and in [11] was Active. In addition, the concentration at 6 h in [5] stood at 1460 ng/g; in data set [14] it was 2160 ng/g. Besides, in [6], the concentration at 48 h is 1210 ng/g. The molecule further showed an EC50 in data set [2] of more than 30 µg/mL. For the same molecule, the Activity entry in [7] is recorded as “Non-Toxic”. Besides, in data set [3], the selectivity ratio is more than 154. This molecule displayed an IC50 in data set [1] of less than 0.1 µg/mL. Moreover, the IC90 in data set [1] was less than 0.19 µg/mL. Moreover, the figures for the concentration at 2 h in [10] and in [15] were 630 ng/g and 4800 ng/g, respectively. For the same molecule, the Drug uptake result in data set [12] is recorded as “Not Active”. Also, in data set [13], the concentration at 24 h came to 4030 ng/g.
As for `N#Cc1ccc(-n2cnc3c(C(N)=O)nc(-c4cccc(O)c4)nc32)cc1`, in data set [1], the half-inhibitory concentration (IC50) turned out to be 38.5 µg/mL (≈ 108 µM) and the IC90 was more than 100 µg/mL.
Consider `NC(=O)c1nc(-c2ccc(OC(F)(F)F)cc2)nc2c1ncn2-c1ccccc1`, for which, in data set [1], the IC50 is more than 100 µg/mL and the IC90 was more than 100 µg/mL.
In data set [1], `COc1ccc(-n2cnc3c(C(N)=O)nc(-c4ccc(O)cc4)nc32)cc1` registered an IC50 of more than 100 µg/mL and an IC90 of more than 100 µg/mL.
In data set [1], `NC(=O)c1nc(-c2ccccc2O)nc2c1ncn2Cc1ccccc1` registered an IC50 of more than 100 µg/mL and an IC90 of more than 100 µg/mL.
In data set [1], `CC(C)(C)Oc1ccc(-c2nc(C(N)=O)c3ncn(-c4ccccc4)c3n2)cc1` displayed an IC50 of more than 100 µg/mL and an IC90 of more than 100 µg/mL.
With `Cn1cnc2c(C(N)=O)nc(-c3cccc(O)c3)nc21`, in data set [1], the IC50 was more than 100 µg/mL and the IC90 is more than 100 µg/mL.
As to `NC(=O)c1nc(-c2cccc(O)c2)nc2c1ncn2-c1ccccc1`, in data set [1], the IC50 is more than 100 µg/mL and the IC90 was more than 100 µg/mL.
In data set [1], `COc1ccc(-n2cnc3c(C(N)=O)nc(-c4ccccc4O)nc32)cc1` returned an IC50 of more than 100 µg/mL and an IC90 of more than 100 µg/mL.
`CN(C)c1ccc(-c2nc(C(N)=O)c3ncn(-c4ccccc4)c3n2)cc1` showed a concentration for a half-maximal effect (EC50) in data set [2] of more than 40 µg/mL. For the same molecule, the selectivity ratio in data set [3] was more than 23.9. In [1], 1.38 µg/mL (≈ 3.85 µM) corresponded to half-maximal inhibition (IC50) and the 90% effect concentration (IC90) is 1.67 µg/mL (≈ 4.66 µM).
